The target in the first test is Recombinant human cathepsin S (CatS) (Homo sapiens, UniProt P25774). Briefly: Recombinant human cathepsin S (CatS) inhibition assay, fluorogenic substrate Z-Valine-Valine-Arginine-AMC.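 Also: Baculovirus-expressed CatS in pH 5.0 sodium acetate buffer with DTT and NaCl, fluorescence read each minute over 20 min, inhibition derived from rate slope.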
Chain of Recombinant human cathepsin S (CatS) (P25774 115-331): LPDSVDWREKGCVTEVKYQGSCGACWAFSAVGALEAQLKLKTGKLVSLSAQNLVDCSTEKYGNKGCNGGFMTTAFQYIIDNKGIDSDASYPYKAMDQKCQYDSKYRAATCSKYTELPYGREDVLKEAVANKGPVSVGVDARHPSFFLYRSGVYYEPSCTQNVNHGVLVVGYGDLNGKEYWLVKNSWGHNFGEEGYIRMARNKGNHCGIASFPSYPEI
Details: not given
In general, IC50 refers to the concentration that inhibits the measured activity by half. Consider `NC(=O)N1CCc2c(c(-c3ccc(Cl)c(C#Cc4ccc(CNCc5ccc(Cl)cc5)cc4)c3)nn2CCCN2CCN(c3cccc[n+]3[O-])CC2)C1` [Example 454, 3-(4-Chloro-3-{[4-({[(4-chlorophenyl)methyl]amino}methyl)phenyl]ethynyl}phenyl)-1-{3-[4-(1-oxidopyridin-2-yl)piperazin-1-yl]propyl}-1,4,6,7-tetrahydro-5H-pyrazolo[4,3-c]pyridine-5-carboxamide], for which the IC50 is 40 nM.
The same measure, in the same setting: for `NC(=O)N1CCc2c(c(-c3ccc(Cl)c(C#Cc4ccc(CNCc5ccc(Cl)cc5)cc4)c3)nn2CCCN2CCC(C(F)(F)F)CC2)C1` [Example 455, 3-(4-Chloro-3-{[4-({[(4-chlorophenyl)methyl]amino}methyl)phenyl]ethynyl}phenyl)-1-{3-[4-(trifluoromethyl)piperidin-1-yl]propyl}-1,4,6,7-tetrahydro-5H-pyrazolo[4,3-c]pyridine-5-carboxamide] the value was 40 nM; for `NC(=O)N1CCc2c(c(-c3ccc(Cl)c(C#Cc4ccc(CNCc5ccc(Cl)cc5)cc4)c3)nn2CCCN2CCCCC2)C1` [Example 458, 3-(4-Chloro-3-{[4-({[(4-chlorophenyl)methyl]amino}methyl)phenyl]ethynyl}phenyl)-1-(3-piperidin-1-ylpropyl)-1,4,6,7-tetrahydro-5H-pyrazolo[4,3-c]pyridine-5-carboxamide], 60 nM; for `NC(=O)C1CCN(CCCn2nc(-c3ccc(Cl)c(C#Cc4ccc(CNCc5ccc(Cl)cc5)cc4)c3)c3c2CCN(C(N)=O)C3)CC1` [Example 461, 1-{3-[4-(Aminocarbonyl)piperidin-1-yl]propyl}-3-(4-chloro-3-{[4-({[(4-chlorophenyl)methyl]amino}methyl)phenyl]ethynyl}phenyl)-1,4,6,7-tetrahydro-5H-pyrazolo[4,3-c]pyridine-5-carboxamide], 30 nM.
Same read-out and setting: for `CS(=O)(=O)N1CCc2c(c(-c3ccc(Cl)c(C#Cc4ccc5c(c4)CN[C@H](C(=O)N4CCCC4)C5)c3)nn2CCCN2CCOCC2)C1` [Example 466, (3S)-7-({2-Chloro-5-[5-(methylsulfonyl)-1-(3-morpholin-4-ylpropyl)-4,5,6,7-tetrahydro-1H-pyrazolo[4,3-c]pyridin-3-yl]phenyl}ethynyl)-3-(pyrrolidin-1-ylcarbonyl)-1,2,3,4-tetrahydroisoquinoline] the value was 50 nM; for `CS(=O)(=O)N1CCc2c(c(-c3ccc(Cl)c(C#Cc4ccc(CNCc5ccc(Cl)cc5)cc4)c3)nn2CCCN2CC3(COC3)C2)C1` [Example 468, 1-{4-[(2-Chloro-5-{5-(methylsulfonyl)-1-[3-(2-oxa-6-azaspiro[3.3]hept-6-yl)propyl]-4,5,6,7-tetrahydro-1H-pyrazolo[4,3-c]pyridin-3-yl}phenyl)ethynyl]phenyl}-N-[(4-chlorophenyl)methyl]methanamine], 190 nM.

Staying with this test, now noted: CatS IC50.
Regarding `CS(=O)(=O)N1CCc2c(c(-c3ccc(Cl)c(C#Cc4ccc(CNCc5nccs5)cc4)c3)nn2CCCN2CCOCC2)C1` [Example 456, 1-[4-({2-Chloro-5-[5-(methylsulfonyl)-1-(3-morpholin-4-ylpropyl)-4,5,6,7-tetrahydro-1H-pyrazolo[4,3-c]pyridin-3-yl]phenyl}ethynyl)phenyl]-N-(1,3-thiazol-2-ylmethyl)methanamine], the half-inhibitory concentration (IC50) turned out to be 120 nM.
The same measure, in the same setting: the same measure for `Cn1cncc1CNCc1ccc(C#Cc2cc(-c3nn(CCCN4CCOCC4)c4c3CN(S(C)(=O)=O)CC4)ccc2Cl)cc1` [Example 457, 1-[4-({2-Chloro-5-[5-(methylsulfonyl)-1-(3-morpholin-4-ylpropyl)-4,5,6,7-tetrahydro-1H-pyrazolo[4,3-c]pyridin-3-yl]phenyl}ethynyl)phenyl]-N-[(1-methyl-1H-imidazol-5-yl)methyl]methanamine]: 90 nM.
On to `CC(=O)NC1CCN(CCCn2nc(-c3ccc(Cl)c(C#Cc4ccc(CNCc5ccc(Cl)cc5)cc4)c3)c3c2CCN(C(N)=O)C3)CC1` [Example 459, 1-{3-[4-(Acetylamino)piperidin-1-yl]propyl}-3-(4-chloro-3-{[4-({[(4-chlorophenyl)methyl]amino}methyl)phenyl]ethynyl}phenyl)-1,4,6,7-tetrahydro-5H-pyrazolo[4,3-c]pyridine-5-carboxamide], for which the IC50 was 20 nM.
`NC(=O)N1CCc2c(c(-c3ccc(Cl)c(C#Cc4ccc(CNCc5ccc(Cl)cc5)cc4)c3)nn2CCCN2CCN(C3CCC3)CC2)C1` [Example 460, 3-(4-Chloro-3-{[4-({[(4-chlorophenyl)methyl]amino}methyl)phenyl]ethynyl}phenyl)-1-[3-(4-cyclobutylpiperazin-1-yl)propyl]-1,4,6,7-tetrahydro-5H-pyrazolo[4,3-c]pyridine-5-carboxamide]: the IC50 is 170 nM.
Same read-out and setting: for `NC(=O)N1CCc2c(c(-c3ccc(Cl)c(C#Cc4ccc(CNCc5ccc(Cl)cc5)cc4)c3)nn2CCCN2CCC3(CC2)OCCO3)C1` [Example 462, 3-(4-Chloro-3-{[4-({[(4-chlorophenyl)methyl]amino}methyl)phenyl]ethynyl}phenyl)-1-[3-(1,4-dioxa-8-azaspiro[4.5]dec-8-yl)propyl]-1,4,6,7-tetrahydro-5H-pyrazolo[4,3-c]pyridine-5-carboxamide] the value was 50 nM; for `NC(=O)N1CCc2c(c(-c3ccc(Cl)c(C#Cc4ccc(CNCc5ccc(Cl)cc5)cc4)c3)nn2CCCN2CCN(C3CC3)CC2)C1` [Example 463, 3-(4-Chloro-3-{[4-({[(4-chlorophenyl)methyl]amino}methyl)phenyl]ethynyl}phenyl)-1-[3-(4-cyclopropylpiperazin-1-yl)propyl]-1,4,6,7-tetrahydro-5H-pyrazolo[4,3-c]pyridine-5-carboxamide], 110 nM.
As to `NC(=O)N1CCc2c(c(-c3ccc(Cl)c(C#Cc4ccc5c(c4)CN(Cc4ccc(Cl)cc4)CC5)c3)nn2CCCN2CCOCC2)C1` [Example 465, 3-[4-Chloro-3-({2-[(4-chlorophenyl)methyl]-1,2,3,4-tetrahydroisoquinolin-7-yl}ethynyl)phenyl]-1-(3-morpholin-4-ylpropyl)-1,4,6,7-tetrahydro-5H-pyrazolo[4,3-c]pyridine-5-carboxamide], the IC50 worked out at 150 nM.
Turning to `C[C@H]1COCCN1CCCn1nc(-c2ccc(Cl)c(C#Cc3ccc4c(c3)CN(C(=O)OC(C)(C)C)CC4)c2)c2c1CCN(S(C)(=O)=O)C2` [Example 467, 1,1-Dimethylethyl 7-({2-chloro-5-[1-{3-[(3S)-3-methylmorpholin-4-yl]propyl}-5-(methylsulfonyl)-4,5,6,7-tetrahydro-1H-pyrazolo[4,3-c]pyridin-3-yl]phenyl}ethynyl)-3,4-dihydroisoquinoline-2(1H)-carboxylate], the IC50 turned out to be 260 nM.

The test is the same for the next values; noted with them: read-out: CatS IC50; Table 4; average of results obtained.
For the compound `CC(C)(C)OC(=O)N1Cc2cc(C#Cc3cc(-c4nn(CCCN5CCOCC5)c5c4CN(S(C)(=O)=O)CC5)ccc3Cl)ccc2C[C@H]1C(=O)O` [Example 464, (3S)-7-({2-Chloro-5-[5-(methylsulfonyl)-1-(3-morpholin-4-ylpropyl)-4,5,6,7-tetrahydro-1H-pyrazolo[4,3-c]pyridin-3-yl]phenyl}ethynyl)-2-{[(1,1-dimethylethyl)oxy]carbonyl}-1,2,3,4-tetrahydroisoquinoline-3-carboxylic acid], the IC50 amounted to 630 nM.

(Values after patent US20080200454A1, “CARBON-LINKED TETRAHYDRO-PYRAZOLO-PYRIDINE MODULATORS OF CATHEPSIN S” (priority 2007, published 2008).)
